# Measured values taken from patent EP0107907A2, “Improvements in or relating to immunomodulating agents” (ELI LILLY AND COMPANY, priority 1982, dated 1984).
# Marks after values point to notes of the source that are not given here.
# Experiments:
# Candida albicans A26 = assay: Protection of mice by pretreatment against lethal Candida albicans infection; assay type: in vivo, CD1 mice
# Protocol: In this test CD1 mice weighing 18-20 g were pretreated intraperitoneally or subcutaneously with test compound at 5, 3, and 1 days before intravenous infection with 5 x 10^6 viable cells of Candida albicans A26. Test compound was solubilized in pyrogen-free water and administered in 0.25 ml of solution. Ten mice were used for each concentration tested. Ten infected mice were treated intraperitoneally or subcutaneously at 5, 3, and 1 days preinfection with 0.25 ml of pyrogen-free water as controls. The immunomodulatory effects of the test compound were studied in X-irradiated mice exposed to 400R 24 hours preinfection, or mice treated intraperitoneally with 50 mg/kg cyclophosphamide 5, 3, and 1 days preinfection. The mice were caged, watered, and fed daily. The number of surviving mice was counted daily. Normal mice surviving 18 days post-infection were given an arbitrary 19-day survival time. X-irradiated or cyclophosphamide-treated mice surviving 12 days post-infection were given an arbitrary 13 day survival time. The average survival time was calculated for each group. Significant differences between treated and untreated groups of mice were determined by "T" test. Compound 1 was devoid of intrinsic in vitro antifungal activity against C. albicans A26 in a standard agar-diffusion test.
# murine macrophages = assay: In vitro activation of murine macrophages (macrophage-mediated tumor cytotoxicity against P815 cells); assay type: cell-based; conditions: 48 hours
# Protocol: In one procedure, the ability of the compounds to activate murine macrophages in vitro was determined. Peritoneal macrophages were exposed to a compound of formula 1, 2, or 3 simultaneously with the addition of target cells. Tumor cytotoxicity of these treated macrophages was determined 48 hours later by trypan blue enumeration. The percentage of growth inhibition of P815 cells due to composition-mediated macrophage activation was calculated by comparison to that of P815 cells grown in the.presence of macrophages exposed to buffer.
# Electrometric titration = assay type: physicochemical; conditions: 66% aqueous dimethylformamide; the glycyl amino group
# [1] = Cyclophosphamide-Pretreated Mice, dose 25 mg/kg
# [2] = Cyclophosphamide-Pretreated Mice, dose 50 mg/kg
compound,measurement,setting,value
"C=C(CP(=O)(O)O)NC(=O)[C@H](CC(C)C)NC(=O)CN [Compound 1, N^2-glycyl-N-(1-methylene-2-phosphonoethyl)leucinamide]",Average Survival Time,Candida albicans A26; [1],6.8 days
same,Percent Increase In Average Survival Time Above Untreated Controls,Candida albicans A26; [1],54.5* Percent
same,Average Survival Time,Candida albicans A26; [2],6.1 days
same,Percent Increase In Average Survival Time Above Untreated Controls,Candida albicans A26; [2],38.6* Percent
same,Average Survival Time,"Candida albicans A26; Normal Mice, dose 12.5 mg/kg",9.1 days
same,Percent Increase In Average Survival Time Above Untreated Controls,"Candida albicans A26; Normal Mice, dose 12.5 mg/kg",68.0* Percent
same,Average Survival Time,"Candida albicans A26; Normal Mice, dose 50 mg/kg",7.1 days
same,Percent Increase In Average Survival Time Above Untreated Controls,"Candida albicans A26; Normal Mice, dose 50 mg/kg",31.5* Percent
same,protecting mice from a lethal Candida albicans A26 infection,"Candida albicans A26; preinfection treatments at 5, 3, and 1 days, intraperitoneally or subcutaneously",significantly effective
same,Percent Macrophage Cytotoxicity,"murine macrophages; 1.56 µg/ml, Experiment 2",0%
same,Percent Macrophage Cytotoxicity,"murine macrophages; 3.12 µg/ml, Experiment 1",11%
same,Percent Macrophage Cytotoxicity,"murine macrophages; 3.12 µg/ml, Experiment 2",14%
same,Percent Macrophage Cytotoxicity,"murine macrophages; 6.25 µg/ml, Experiment 1",0%
same,Percent Macrophage Cytotoxicity,"murine macrophages; 6.25 µg/ml, Experiment 2",0%
same,Percent Macrophage Cytotoxicity,"murine macrophages; 12.5 µg/ml, Experiment 1",27%
same,Percent Macrophage Cytotoxicity,"murine macrophages; 12.5 µg/ml, Experiment 2",39%
same,Percent Macrophage Cytotoxicity,"murine macrophages; 25 µg/ml, Experiment 1",43%
same,Percent Macrophage Cytotoxicity,"murine macrophages; 25 µg/ml, Experiment 2",32%
same,Percent Macrophage Cytotoxicity,"murine macrophages; 50 µg/ml, Experiment 1",35%
same,Percent Macrophage Cytotoxicity,"murine macrophages; 50 µg/ml, Experiment 2",29%
same,Percent Macrophage Cytotoxicity,"murine macrophages; 100 µg/ml, Experiment 1",53%
same,pKa,Electrometric titration,8.2
